Test results from patent publication US9149038B2, “4-amino-6-(heterocyclic)picolinates and 6-amino-2-(heterocyclic)pyrimidine-4-carboxylates and their use as herbicides” (Dow AgroSciences LLC, priority 2013, dated 2015).
Like-named read-outs stand apart in the source and are kept apart here. Blank lines part the entries; values can stand above or below the compound they belong to.

Legend:
[1] = system: Key Broadleaf and Grass Weed as well as Crop Species; test: Post-Emergent Test I: postemergent herbicidal activity, visual phytotoxicity rating 10 days after treatment (Table 5); assay type: in vivo; settings: 4 kg ai/ha; for Visual Growth Reduction (%) 10 Days After Application ECHCG: barnyardgrass (Echinochloa crus-galli); for pest or weed control at 4000 g/ha: post-emergence, 240 h, 10 days after application
Procedure: Herbicidal evaluations were made visually on a scale of 0 to 100 where 0 represents no activity and 100 represents complete plant death. Post-Emergent Test I: Seeds of test species were obtained from commercial suppliers and planted into a 5″-round pot containing soil-less media mix (Metro-Mix 360®, Sun Gro Horticulture). Postemergence treatments were planted 8-12 days (d) prior to application and cultured in a greenhouse equipped with supplemental light sources to provide a 16 h photoperiod at 24-29° C. All pots were surface irrigated. Approximately 10 milligrams (mg) of each compound were dissolved in 1.3 mL acetone-DMSO (97:3, volume per volume (v/v)) and diluted with 4.1 mL water-isopropanol-crop oil concentrate (78:20:2, v/v/v) containing 0.02% Triton X-155. Treatments were serial diluted with the above formulation solvent to provide 1.85, 0.926, 0.462 and 0.231 milligrams per milliliter (mg/mL) of test compound delivered in 2.7 mL/pot (roughly equivalent to 4.0, 2.0, 1.0, and 0.5 kg/ha, respectively). Formulated compounds were applied using a DeVilbiss® compressed air sprayer at 2-4 pounds per square inch (psi). Following treatment, pots were returned to the greenhouse for the duration of the experiment. All pots were sub-irrigated as needed to provide optimum growing conditions. All pots were fertilized one time per week by subirrigating with Peters Peat-Lite Special® fertilizer (20-10-20). Phytotoxicity ratings were obtained 10 days after treatment postemergence applications. All evaluations were made visually on a scale of 0 to 100 where 0 represents no activity and 100 represents complete plant death and are presented as indicated in Table 4.

[2] = giant foxtail (Setaria faberi), read-out: Visual Growth Reduction (%) 10 Days After Application SETFA
[3] = ivyleaf morningglory (Ipomoea hederecea), read-out: Visual Growth Reduction (%) 10 Days After Application IPOHE
[4] = sunflower (Helianthus annuus), read-out: Visual Growth Reduction (%) 10 Days After Application HELAN
[5] = wild oats (Avena fatua), read-out: Visual Growth Reduction (%) 10 Days After Application AVEFA

- melting point: 112 to 114 °C
SMILES: C=Cc1c(C(=O)OC)nc(-c2ccc3c(c2)OC(F)(F)O3)c(F)c1N [Compound 29]

- melting point: 165 to 166 °C
SMILES: COc1cc2c(cc1-c1cc(N)c(Cl)c(C(=O)O)n1)OC(F)(F)O2 [Compound 39]

- melting point: 176 to 177 °C
SMILES: COC(=O)c1nc(-c2cc(F)c3c(c2)OC(F)(F)O3)cc(N)c1Cl [Compound 43]

- melting point: 162 to 165 °C
SMILES: COC(=O)c1nc(-c2cc3c(cc2F)OC(F)(F)O3)c(C)c(N)c1Cl [Compound 50]

SMILES: Cc1c(-c2cc3c(cc2F)OC(F)(F)O3)nc(C(=O)O)c(Cl)c1N [Compound 51]
- Visual Growth Reduction (%) 10 Days After Application ECHCG [1]: G (0-29)
- pest or weed control at 4000 g/ha [1, 2]: 0 to 29%
- pest or weed control at 4000 g/ha [1, 3]: 0 to 29%
- pest or weed control at 4000 g/ha [1, 4]: 60 to 74%
- pest or weed control at 4000 g/ha [1, 5]: 0 to 29%

- melting point: 153.5 to 155 °C
SMILES: COC(=O)c1nc(-c2ccc3c(c2F)OC(F)(F)O3)c(C)c(N)c1Cl [Compound 53]

SMILES: Cc1c(-c2ccc3c(c2F)OC(F)(F)O3)nc(C(=O)O)c(Cl)c1N [Compound 54]
- Visual Growth Reduction (%) 10 Days After Application ECHCG [1]: G (0-29)
- pest or weed control at 4000 g/ha [1, 2]: 0 to 29%
- pest or weed control at 4000 g/ha [1, 3]: 0 to 29%
- pest or weed control at 4000 g/ha [1, 4]: 60 to 74%
- pest or weed control at 4000 g/ha [1, 5]: 0 to 29%

- melting point: 109 to 111 °C
SMILES: COC(=O)c1nc(-c2ccc3c(c2F)OC(F)(F)O3)nc(N)c1OC [Compound 65]

- melting point: 170 °C
SMILES: Nc1cc(-c2cccc3c2OC(F)(F)O3)nc(C(=O)O)c1Cl [Compound 85]
